Reference: patent US7022484B2, “Methods for treating neuropathological states and neurogenic inflammatory states and methods for identifying compounds useful therein” (Board of Regents, The University of Texas System, priority 2000, dated 2006)

What was measured:
rat arthritis model = assay: Knee joint circumference and joint temperature in kaolin/carrageenan knee joint inflammation model; assay type: in vivo; settings: 4 hours after kaolin/carrageenan; spinal pre-treatment
Protocol: An acute inflammatory response restricted to the knee joint can be induced by the injection of 3% kaolin and 3% carrageenan (in sterile saline; 0.1 ml; pH 7.4) into the joint cavity while the animal is briefly anesthetized with sodium methohexital (Brevital, 60 mg/kg, i.p.). Kaolin and carrageenan were obtained from Fisher Scientific, St. Louis, Mo. The knee joint is flexed manually until the rat awakes (approximately 5–10 minutes). In this arthritis model in the awake rat, localized joint swelling, as well as limping and guarding of the limb, are well developed at 4 hours (Sluka et al., Pain, 59, 95–100 (1994)) when behavioral testing begins.
Knee joint circumference is measured in centimeters (cm) with a flexible tape measure around the center of the knee joint while the joint is held in extension as done with patients in the clinical setting as an indication of increases in joint volume. The knee joints of anesthetized rats are measured before (baseline) and four hours following injection of the knee joint with kaolin and carrageenan.
Temperature readings were documented numerically with a temperature probe after the rat is reanesthetized with sodium pentobarbital (50 mg/kg, i.p.) just prior to perfusion with aldehydes for histological preservation. Comparative temperature differences were made between the baseline temperature and the temperature four hours after induction of inflammation.

TNFα = TNFα release by ELISA from SW982 synovial cells treated with NMDA and ACPD; assay type: cell-based, human; settings: 24 hours, NMDA (5 mM) and ACPD (5 mM), K252a (100 nM)
Protocol: The cultured cell lines used in these studies were the human neuroblastoma clonal line, SHSY5Y, and the human synovial sarcoma clonal line, SW982, both available through the American Tissue Type Culture Collection (item number CRL 2266 and HTB-93, respectively). Cells were grown in Dulbecco's Modification of Eagles Medium (DMEM) without L-glutamine, with 4.5 grams/Liter glucose, and with 10% bovine fetal serum in a tissue culture incubator at 37° C. in a gaseous mixture of O2/CO2. Cells were routinely split as necessary to maintain proper cell density. Cells were removed from plates by adding TRYPSIN/EDTA in Hank's Balanced Salt solution. After cell counts, approximately 10,000 cells were plated per well in a culture dish. For experiments, the cells were plated into 35 mm Petri dishes or 6- or 24-well plates as needed.
For detection of released Tumor Necrosis Factor alpha (TNFα) and some western blot experiments, cells were exposed to the two glutamate agonists NMDA (5 mM) and ACPD (5 mM), in the presence or absence of the tyrosine kinase inhibitors Genistein […] or K252a (100 nM). […]
The release of the inflammatory mediator and initiator of inflammatory cascades, TNFα was measured by ELISA using a commercially available kit (R&D Quantikine, Catalog Number DTA50) specific for human TNFα. […]

## O=c1c(-c2ccc(O)cc2)coc2cc(O)cc(O)c12 [Genistein, 5,7-Dihydroxy-3-(4-hydroxyphenyl)-4H-1-benzopyran-4-one; 4′,5,7-trihydroxy-isoflavone]
Rat arthritis model
  joint circumference: expected increases
  joint temperature: expected increases
TNFα
  NMDA/ACPD-promoted release of TNFα: completely abolished
